The values that follow come from publication PMC7912881, “Polyhydroxy p-Terphenyls from a Mangrove Endophytic Fungus Aspergillus candidus LDJ-5” (Marine Drugs, 2021).

The IC50 is the concentration needed to halve the response being measured. As usually defined, the MIC is the least concentration at which growth counts as inhibited.

Data set [1] deals with L-02, MGC-803, HCT-116, BEL-7402, A549, SH-SY5Y, Hela, U87, K562, HL-60, HO8910, and MCF-7 cell lines. As to the kind of experiment: Cytotoxicity against the panel of cell lines (SRB or MTT method). In kind it is cell-based, human. The settings on record: for IC50: Homo sapiens; for cytotoxicity effects: compared with prenylcandidusins on K562. How it is done:
(§1) All p-terphenyls (1–7) were tested for their cytotoxicity against the L-02, MGC-803, HCT-116, BEL-7402, A549, SH-SY5Y, Hela, U87, K562, HL-60, HO8910, and MCF-7 cell lines using either the SRB or the MTT method with adriamycin as positive control. […] Recently, we have also reported nine prenylated p-terphenyls from Aspergillus candidus LDJ-5 [6]. Most of the prenylated p-terphenyls were cytotoxic. Additionally, comparing to prenylcandidusin B and prenylcandidusin C, compounds 2 and 3 were distinguished by the presence of one hydroxy group and the lack of the isoprenyl group on ring C (C-3″). […] The antimicrobial activities of compounds 1–7 were evaluated in vitro against Proteus species, Pseudomonas aeruginosa, Bacillus subtilis, B. cereus, and Mycobacterium phlei. […] Asperterphenyllin A (1) was also tested for antiviral activity and protein tyrosine phosphatase 1B (PTP1B) inhibitory activity. The antiviral activity of asperterphenyllin A (1) was evaluated against the influenza A virus (H1N1) using the cytopathic effect (CPE) inhibition assay. […] Protein tyrosine phosphatase 1B (PTP1B) has been reported to be a novel drug target for diabetes and obesity. It has also been considered to be involved in tumorigenesis.
(§2) The cytotoxicity of 1–7 and positive control was evaluated against human leukemia cell lines K562 and HL-60 (using the MTT method), human normal liver cell line L-02, human gastric cancer cell lines MGC-803, human colon cancer lines HCT-116, human hepatocacinoma cell line BEL-7402, human lung cancer cell lines A549, human neuroblastoma cell line SH-SY5Y, human cervical cancer cell lines HeLa, human glioma cell lines U87, human ovarian cancer cell lines HO-8910, and human breast cancer cell lines MCF-7 (using the SRB method). Adriamycin was used as positive control. The detailed methodologies for biological testing have been described in previous reports. All the cell lines were purchased from the Institute of Biochemistry and Cell Biology, Chinese Academy of Sciences (Shanghai, China).

The next data set deals with Mycobacterium phlei. The data set is described as follows: Antimicrobial activity, agar dilution method. In kind it is cell-based. The settings on record: Mycolicibacterium phlei. The method, then:
as §1
(§3) Antimicrobial activities were evaluated as previously reported by using the agar dilution method. The five microbial strains included Proteus sp., Pseudomonas aeruginosa, Bacillus subtilis, B. cereus, and Mycobacterium phlei. Ciprofloxacin was used as positive control. All strains were donated by the Qingdao municipal hospital.
Background: In agar dilution, organisms are placed on agar that contains the substance at set levels.

Another data set relates to Bacillus subtilis. The data set is described as follows: Antimicrobial activity, agar dilution method. The format is cell-based. The method, then: as §1, §3
The next data set has as its system Proteus species. The data set is described as follows: Antimicrobial activity, agar dilution method. In kind it is cell-based. The method, then: as §1, §3
In another data set the test system is Bacillus cereus. The data set is described as follows: Antimicrobial activity, agar dilution method. The format is cell-based. How it is done: as §1, §3
The next data set deals with Pseudomonas aeruginosa. The data set is described as follows: Antimicrobial activity, agar dilution method. The format is cell-based. The method, then:
as §1, §3

The next data set deals with SH-SY5Y cell line. As to the kind of experiment: Cytotoxicity, SRB method. The format is cell-based. The settings on record: SH-SY5Y human neuroblastoma cell line. The method, then: as §1, §2
A general note: In SRB staining, fixed cells bind dye roughly in proportion to their protein.

A further data set has as its system A549 cell line. The data set is described as follows: Cytotoxicity, SRB method. The format is cell-based. The following applies: A549 human lung cancer cell line. How it is done:
as §1, §2

A short description of a further data set: Cytotoxicity, SRB method. In kind it is cell-based. The following applies: L-02 normal liver cells, L-02 human normal liver cell line. How it is done:
as §1, §2

For another data set, the system named is MGC-803 cell line. The data set is described as follows: Cytotoxicity, SRB method. The format is cell-based. The settings on record: MGC-803 human gastric cancer cell line. The method, then:
as §1, §2

The subject of a further data set is HO8910 cell line. As to the kind of experiment: Cytotoxicity, SRB method. The format is cell-based. The settings on record: HO-8910, HO8910 human ovarian cancer cell line. The method, then:
as §1, §2

For the next data set, the system named is Hela cell line. The data set is described as follows: Cytotoxicity, SRB method. The format is cell-based. The settings on record: Hela human cervical cancer cell line. The method, then: as §1, §2
For another data set, the system named is U87 cell line. As to the kind of experiment: Cytotoxicity, SRB method. The settings on record: U-87 MG, U87 human glioma cell line. In kind it is cell-based. How it is done: as §1, §2
The subject of the next data set is BEL-7402 cell line. As to the kind of experiment: Cytotoxicity, SRB method. In kind it is cell-based. The settings on record: BEL-7402 human hepatocarcinoma cell line. How it is done: as §1, §2
The subject of another data set is HCT-116 cell line. The data set is described as follows: Cytotoxicity, SRB method. In kind it is cell-based. The settings on record: HCT-116 human colon cancer cell line. How it is done:
as §1, §2

For a further data set, the system named is K562 cell lines. On the set-up: method as in PMID 31827255. The settings on record: cited from earlier work.
For a further data set, the system named is influenza A virus (H1N1). As to the kind of experiment: Anti-influenza A viral (H1N1) CPE inhibition assay. In kind it is cell-based. The method, then:
as §1
The antiviral activity of compound 1 against influenza A virus (H1N1) was evaluated by the CPE inhibition assay. […]

Data set [2] concerns the target T1, protein tyrosine phosphatase 1B (PTP1B) (Homo sapiens, UniProt P18031).
T1 sequence (P18031 1-435): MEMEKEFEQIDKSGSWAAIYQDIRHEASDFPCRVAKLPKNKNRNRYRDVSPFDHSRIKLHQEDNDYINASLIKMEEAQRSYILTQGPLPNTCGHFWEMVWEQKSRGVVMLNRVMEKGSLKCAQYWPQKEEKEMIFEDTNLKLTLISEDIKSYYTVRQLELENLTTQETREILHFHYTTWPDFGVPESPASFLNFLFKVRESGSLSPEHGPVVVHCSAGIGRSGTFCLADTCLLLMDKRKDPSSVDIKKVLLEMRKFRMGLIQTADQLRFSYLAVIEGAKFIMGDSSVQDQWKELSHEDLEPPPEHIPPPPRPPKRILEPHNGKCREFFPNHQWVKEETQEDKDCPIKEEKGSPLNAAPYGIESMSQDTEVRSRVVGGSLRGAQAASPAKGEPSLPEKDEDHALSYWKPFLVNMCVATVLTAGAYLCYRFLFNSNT
As to the kind of experiment: PTP1B inhibitory assay (pNPP hydrolysis). In kind it is biochemical. The following applies: pNPP substrate, room temperature.

Where [3] appears, read: all twelve tested cell lines, SRB or MTT, read-out: IC50 against all tested cell lines.

In brackets after ≈: the same amount, converted by molar mass. Read-outs that look alike come from different tables or passages of the source.

For `COc1cc2oc3c(OC)c(-c4ccc(O)c(O)c4)cc(OC)c3c2cc1OC` [Compound 2, Asperterphenyllin B], the IC50 in data set [1] (setting [3]) is over 50000 nM. The cytotoxicity effects entry in [1] is reported as “did not show any cytotoxicity effects”. In addition, the MIC was 79 µg/mL (≈ 199 µM) against Mycobacterium phlei; over 200 µg/mL against Bacillus subtilis; over 200 µg/mL against Proteus species; over 200 µg/mL against Bacillus cereus; 40 µg/mL (≈ 101 µM) with Pseudomonas aeruginosa.

As for `COc1cc(-c2ccc(O)c(O)c2)c(OC)c(O)c1-c1ccccc1` [Compound 6, Asperterphenyllin F], in [1] (setting [3]), the IC50 is over 50000 nM. In addition, the MIC in the data set on Mycobacterium phlei, in the data set on Bacillus subtilis, in the data set on Proteus species, against Bacillus cereus and against Pseudomonas aeruginosa was over 200 µg/mL throughout.

With `COc1cc(-c2c(OC)cc(-c3ccccc3)c(OC)c2O)ccc1O` [Compound 5, Asperterphenyllin E], the IC50 in data set [1] (setting [3]) is over 50000 nM. In addition, the minimum inhibitory concentration (MIC) in the data set on Mycobacterium phlei was determined as 70 µg/mL (≈ 199 µM); in the data set with Bacillus subtilis, 70 µg/mL (≈ 199 µM); with Proteus species, 35 µg/mL (≈ 99.3 µM); against Bacillus cereus, 70 µg/mL (≈ 199 µM); against Pseudomonas aeruginosa, 70 µg/mL (≈ 199 µM).

`COc1cc(-c2ccc(O)cc2)c(OC)c(O)c1-c1ccc(OC/C=C(\C)CO)c(O)c1` [Compound 7, Asperterphenyllin G]: the IC50 in the data set on SH-SY5Y cell line was found to be 600 nM; with A549 cell line it was 400 nM; in the data set “Cytotoxicity, SRB method” it was 1700 nM; in the data set with MGC-803 cell line it was 1000 nM; in the data set on HO8910 cell line, 1300 nM; with Hela cell line it was 1700 nM. In addition, the concentration for half-maximal inhibition (IC50) is 900 nM in the data set on U87 cell line, 6000 nM with BEL-7402 cell line, 800 nM in the data set on HCT-116 cell line and 400 to 1700 nM in [1] (read-out: IC50 values against nine cell lines (range)). Also, the minimal inhibitory concentration (MIC) in the data set on Mycobacterium phlei is over 200 µg/mL; in the data set with Bacillus subtilis, over 200 µg/mL; against Proteus species, over 200 µg/mL; against Bacillus cereus, 87 µg/mL (≈ 198 µM); in the data set with Pseudomonas aeruginosa, over 200 µg/mL.

Take `COc1cc2oc3c(OC)c(-c4ccc(O)c(CC=C(C)C)c4)cc(OC)c3c2cc1OC` [Prenylcandidusin B]: the “inhibitory activity against K562 cell lines” value in the data set on K562 cell lines is recorded as “moderate inhibitory activity”.

On to `COc1c(-c2ccc(O)c(O)c2)cc(OC)c2c1oc1c(-c3c(O)c(O)cc4c3oc3c(OC)c(-c5ccc(O)c(O)c5)cc(OC)c34)c(O)c(O)cc12` [Compound 1, Asperterphenyllin A], for which the IC50 was 53000 nM with influenza A virus (H1N1) (H1N1, CPE inhibition assay, read-out: IC50 anti-influenza virus A (H1N1) activity); over 50000 nM in data set [1] (setting [3]); 21000 nM in [2]. Moreover, the MIC against Mycobacterium phlei, against Bacillus subtilis, in the data set with Proteus species, with Bacillus cereus and in the data set on Pseudomonas aeruginosa was over 200 µg/mL throughout.

On to `NC(=O)c1ncn([C@@H]2O[C@H](CO)[C@@H](O)[C@H]2O)n1` [ribavirin, reference compound], for which the concentration for half-maximal inhibition (IC50) with influenza A virus (H1N1) (H1N1, read-out: IC50 anti-influenza virus A (H1N1) activity) came out at 35000 nM.

For `COc1cc2oc3c(OC)c(-c4ccc(O)c(O)c4)cc(OC)c3c2cc1O` [Compound 3, Asperterphenyllin C], in data set [1] (setting [3]), the IC50 is over 50000 nM. The cytotoxicity effects result in data set [1] is given as “did not show any cytotoxicity effects”. Also, the minimal inhibitory concentration (MIC) against Mycobacterium phlei is 38 µg/mL (≈ 99.4 µM); against Bacillus subtilis it was 38 µg/mL (≈ 99.4 µM); in the data set with Proteus species, 19 µg/mL (≈ 49.7 µM); against Bacillus cereus, over 200 µg/mL; against Pseudomonas aeruginosa it was over 200 µg/mL.

Take `COc1cc2oc3c(OC)c(-c4ccc(O)c(CC=C(C)C)c4)cc(OC)c3c2cc1O` [prenylcandidusin C]: the “inhibitory activity against K562 cell lines” value in the data set on K562 cell lines is listed as “moderate inhibitory activity”.

On to `O=C(O)c1cn(C2CC2)c2cc(N3CCNCC3)c(F)cc2c1=O` [Ciprofloxacin, reference compound], for which the MIC stood at 0.52 µg/mL (≈ 1.57 µM) against Mycobacterium phlei; 4.14 µg/mL (≈ 12.5 µM) in the data set on Bacillus subtilis; 0.26 µg/mL (≈ 0.785 µM) in the data set with Proteus species; 2.07 µg/mL (≈ 6.25 µM) with Bacillus cereus; 0.52 µg/mL (≈ 1.57 µM) against Pseudomonas aeruginosa.

Turning to `COc1cc(-c2ccc(O)cc2)c(OC)c(OC)c1-c1ccc(O)c(O)c1` [Compound 4, Asperterphenyllin D], in data set [1] (setting [3]), the half-maximal inhibitory concentration (IC50) was over 50000 nM. The minimum inhibitory concentration (MIC) is over 200 µg/mL in the data set on Mycobacterium phlei; over 200 µg/mL against Bacillus subtilis; over 200 µg/mL against Proteus species; 70 µg/mL (≈ 190 µM) in the data set on Bacillus cereus; over 200 µg/mL in the data set on Pseudomonas aeruginosa.
